In patent publication US9144538B2, “Cosmetic compositions containing substituted azole and methods for alleviating the signs of photoaged skin” (The Procter & Gamble Company, priority 2013, dated 2015):
Read-outs that look alike come from different tables or passages of the source.

Tests used:
[1] = target: CYP3A4 (Homo sapiens (Human), UniProt P08684); assay: In vitro CYP3A4 inhibition assay (P450-GLO Assay kit)
Description: The metabolism of retinoic acid and vitamin D in the skin is incompletely understood, but there is evidence for the involvement of CYP26A1, CYP3A4 and CYP2C8 in catalyzing the 4-hydroxylation of all-trans RA to 4-hydroxy-RA. It is believed, without being limited by theory, that CYP3A4 may be particularly important for ATRA metabolism in the skin. This is because CYP3A4 is expressed in skin, involved in RA metabolism, a CYP with one of the broadest substrate specificities of all of the known CYPs and available as a human recombinant protein in a commercial kit. Thus, a commercially available CYP3A4 assay was used as a surrogate to predict RAMBA potential in the skin.
The commercially available P450-GLO™ Assay kit (Promega Corporation, Madison Wis.) was used to screen various compounds for potential CYP activity, specifically CYP3A4A inhibition activity. CYP3A4A is thought to be among the primary CYP isoforms responsible for retinoic acid metabolism in the skin.
A commercially available P450-GLO™ Assay kit (Promega Corporation, Madison Wis.) is used to screen various compounds for CYP3A4A inhibition activity. CYP3A4A is thought to be one of the primary CYP isoforms responsible for retinoic acid metabolism in the skin.

[2] = test system: ATRA 4-hydroxylase (CYP) activity of pig liver microsomes; assay: In vitro ATRA 4-hydroxylase activity assay to determine CYP inhibition (pig liver microsomes)
Description: Cytochrome P450 is a large and diverse group of enzymes that catalyze the oxidation of organic substances. […] Applicant evaluated the potential RAMBA activity of several azoles using pig liver microsomes, a rich source of CYP activity, comprising many different CYP 450 isoforms. […] As understanding in this area has progressed, a more specific CYP inhibition assay can be used to provide better predictivity of activity in human skin. Nevertheless, this assay may still be used as a general predictor of overall CYP activity.
All procedures were carried out under minimal light in order to prevent degradation of the retinoid samples.
Microsomal preparation: one lobe of fresh pig liver was obtained at the time of slaughter from a food-processing company and immediately placed in ice cold 15 mM KH2PO4/250 mM sucrose (pH 7.4) and kept on ice during transportation. A 10 g sample of liver was minced and homogenized in 30 mls of homogenization buffer (15 mM KH2PO4/250 mM sucrose) using a Tekmar homoginizer by pulsing 3 times 20 second pulses. […] The remaining pig liver was cut into 10-g pieces and wrapped in aluminum foil and stored at −80° C. The homogenates from the 8 samples were pooled and centrifuged at 13,000×g for 20 minutes at 4° C. to remove crude debris and the supernatant was further centrifuged at 100,000×g for 70 minutes at 4° C. The microsomal pellets were resuspended into 50 mls of 150 mM KH2PO4/1 mM DTT (pH 7.4) and 1 mL aliquots were stored at −80° C.
100-150 μg of pig liver microsomal protein in 150 mM KH2PO4 is incubated at 37° C. in the presence of radiolabeled ATRA and 5 mM NADPH for 90 min. The final ATRA concentration is 1 μM, as a combination of [20-Methyl-^3H]ATRA and unlabeled ATRA. Initially, radiolabeled ATRA may be used to assist in validating the method. Once retention times of retinoid metabolites are identified, unlabeled ATRA is used for screening. Compounds tested as possible competitive substrates are added to the assay 10 min prior to the addition of ATRA. Ethanol, containing 0.1% butylated hydroxytoluene (BHT) as an antioxidant, is used to stop the reactions. For recovery of ATRA the pH of reactions are adjusted to 3.0 before extraction with 0.1N HCl. Retinoids are extracted from the protein aqueous phase with 4 mL hexane, 1 ml 100 μg/ml BHT in water (pH 3). An additional 4 mlL of hexane (pH 3) is used for a second extraction. The organic extractions are pooled, evaporated to dryness using a speed vac, and resuspended in 62.5 μl acetonitrile containing 1 mg/ml BHT. Samples are analyzed by HPLC.
Mobile phases used for gradient elution of retinoids are those of Duell et al., J. Clin. Invest. […] Mobile phase A is acetonitrile:0.02 M ammonium acetate:acetic acid (1:1:0.01) and mobile phase B is acetonitrile:0.2M ammonium acetate:acetic acid (19:1:0.008). At the start of the HPLC run, solvent A is run 100% followed by a linear gradient to solvent B at 3 minutes, a shallow gradient to 81% solvent B at 38 minutes, and 100% solvent B at 40 minutes. […] Effluent from the HPLC column flows directly into a flow-through scintillation spectrometer (β-RAM). Because of the sensitivity limitations of the β-RAM spectrometer, it is not used to quantitate peak areas but rather to confirm ATRA and ATRA 4-hydroxylase activity. Calculated peaks areas (using Millenium software—Waters Corp.) of ATRA and ATRA metabolites are used to quantify relative activity levels.

[3] = read-out: IC50 (uM), CYP3A4 inhibition, P450-GLO Assay kit
[4] = read-out: IC50 (μM), in vitro 4-hydroxylase inhibition assay, pig liver microsomes, 1 μM ATRA, 90 min at 37° C.

Sequence of CYP3A4 (P08684 whole entry): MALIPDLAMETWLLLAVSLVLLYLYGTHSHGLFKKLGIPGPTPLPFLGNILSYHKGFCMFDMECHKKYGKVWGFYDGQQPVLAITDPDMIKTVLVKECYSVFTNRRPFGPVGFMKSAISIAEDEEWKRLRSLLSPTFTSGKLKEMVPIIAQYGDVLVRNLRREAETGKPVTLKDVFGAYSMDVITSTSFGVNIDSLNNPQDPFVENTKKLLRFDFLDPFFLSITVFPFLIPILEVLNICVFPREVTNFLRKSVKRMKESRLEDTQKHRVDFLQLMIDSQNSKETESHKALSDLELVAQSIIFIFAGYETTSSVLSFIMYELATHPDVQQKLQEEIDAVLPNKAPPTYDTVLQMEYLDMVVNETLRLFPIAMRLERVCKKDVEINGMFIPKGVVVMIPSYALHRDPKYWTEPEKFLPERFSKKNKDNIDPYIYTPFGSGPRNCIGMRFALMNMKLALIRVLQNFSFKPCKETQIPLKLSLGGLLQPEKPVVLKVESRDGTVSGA

Compound: CC(=O)n1ccnc1 [1-Acetylimidazole]
- IC50 [1, 3]: > 10 µM

Compound: Cn1ccnc1 [1-Methylimidazole]
- IC50 ([1]; human): > 10 µM

Compound: C=Cn1ccnc1 [1-Vinylimidazole]
- IC50 [1, 3]: > 10 µM

Compound: Cc1nccn1Cc1ccccc1 [1-benzyl-2-methylimidazole]
- IC50 ([2]; pig, 90 min, pH 7.4): 308 µM

Compound: c1ccc(Cn2ccnc2)cc1 [1-benzylimidazole]
- IC50 [2, 4]: 77.5 µM

Compound: c1ccc(-n2ccnc2)cc1 [1-phenylimidazole]
- hit / no hit, inhibition of CYP3A4 ([1]; P450-GLO Assay kit): Hit
- inhibitory activity in the CYP3A4 assay (in words) ([1]; P450-GLO Assay kit): showed inhibitory activity
- CYP inhibitory activity (in words), 4-hydroxylase assay ([2]; pig liver microsomes): in the same range as climbazole
- IC50 [2, 4]: 52.5 µM

Compound: O=C(n1ccnc1)n1ccnc1 [1′-1-Carbonylimidazole]
- IC50 [1, 3]: > 10 µM

Compound: Clc1ccccc1-c1nc2ccccc2[nH]1 [2-(2-Chlorophenyl) benzimidazole]
- IC50 [1, 3]: > 10 µM

Compound: CCCCc1nc(C=O)c(Cl)[nH]1 [2-Butyl-4-chloro-5-formylimidazole]
- IC50 ([1]; human): > 10 µM

Compound: CCc1nc(C)c[nH]1 [2-Ethyl-4-methylimidazole]
- IC50 [1, 3]: > 10 µM

Compound: CCc1ncc[nH]1 [2-Ethylimidazole]
- IC50 ([1]; human): > 10 µM

Compound: Cc1ncc[nH]1 [2-Methylimidazole]
- IC50 [1, 3]: > 10 µM

Compound: c1ccc(-c2ncc[nH]2)cc1 [2-phenylimidazole, 2-Phenylimidazole]
- inhibitory activity in the CYP3A4 assay (in words) [1]: did not
- hit / no hit, inhibition of CYP3A4 ([1]; P450-GLO Assay kit): no hit (weak/no inhibition (IC50 value >10 μM))
- IC50 ([1]; human): > 10 µM
- CYP inhibitory activity (in words), 4-hydroxylase assay ([2]; pig liver microsomes): lacked any significant inhibitory activity
- IC50 [2, 4]: > 500 µM

Compound: c1ccc(-c2nc[nH]c2-c2ccccc2)cc1 [4,5-diphenylimidazole]
- IC50 ([2]; pig, 90 min, pH 7.4): 100 µM

Compound: CC(=O)c1ccc(-n2ccnc2)cc1 [4′-(Imidazol-1yl) acetophenome]
- hit / no hit, inhibition of CYP3A4 ([1]; human): Hit

Compound: Clc1ncnc2[nH]cnc12 [6-Chloropurine]
- IC50 ([1]; human): > 10 µM

Compound: Nc1nc[nH]n1 [Amitrol]
- IC50 ([1]; human): > 10 µM

Compound: CCCCNC(=O)n1c(NC(=O)OC)nc2ccccc21 [Benomyl]
- hit / no hit, inhibition of CYP3A4 ([1]; P450-GLO Assay kit): no hit (weak/no inhibition (IC50 value >10 μM))
- IC50 [1, 3]: > 10 µM

Compound: c1ccc2[nH]cnc2c1 [Benzimidazole]
- IC50 [1, 3]: > 10 µM

Compound: CC1=N[C@H](C(=O)O)CCN1 [Ectoine]
- IC50 ([1]; human): > 10 µM

Compound: c1coc(-c2nc3ccccc3[nH]2)c1 [Fuberidazole]
- hit / no hit, inhibition of CYP3A4 ([1]; human): no hit >10 uM (key: hit: strong inhibition (IC50 value<10 μM); no hit: weak/no inhibition (IC50 value >10 μM))
- IC50 [1, 3]: > 10 µM

Compound: CC(NC(=O)[C@@H](N)CCC(=O)O)c1ncc[nH]1 (stereo partly drawn) [Glutamylamidoethyl]
- IC50 ([1]; human): > 10 µM

Compound: N=C(N)c1ccc(OCCCCCCOc2ccc(C(=N)N)cc2)cc1 [Hexamidine diisethionate]
- IC50 [1, 3]: > 10 µM

Compound: N[C@@H](Cc1c[nH]cn1)C(=O)O [Histidine]
- IC50 ([1]; human): > 10 µM

Compound: c1ccc(-c2n[nH]cc2-c2ccnc3ccccc23)nc1 [LY-364947]
- IC50 ([1]; human): > 10 µM

Compound: Cc1cccc(C)c1N(Cn1cccn1)C(=O)CCl [Metazachlor]
- hit / no hit, inhibition of CYP3A4 ([1]; human): no hit >10 uM (key: hit: strong inhibition (IC50 value<10 μM); no hit: weak/no inhibition (IC50 value >10 μM))
- IC50 [1, 3]: > 10 µM

Compound: Cc1ccc2cc3c(ccc4ccccc43)c3c2c1CC3 [Methylcholanthrene]
- hit / no hit, inhibition of CYP3A4 ([1]; P450-GLO Assay kit): Near Hit
- IC50 [1, 3]: > 10 µM

Compound: CCc1cccc(C)c1N(C(=O)CCl)[C@@H](C)COC [Metolachlor]
- hit / no hit, inhibition of CYP3A4 ([1]; P450-GLO Assay kit): no hit (weak/no inhibition (IC50 value >10 μM))
- IC50 [1, 3]: > 10 µM

Compound: CC(C)(C(=O)c1cccnc1)c1cccnc1 [Metyrapone]
- hit / no hit, inhibition of CYP3A4 ([1]; human): Hit

Compound: Clc1ccc(COC(Cn2ccnc2)c2ccc(Cl)cc2Cl)c(Cl)c1 (stereo not drawn) [Miconazole]
- hit / no hit, inhibition of CYP3A4 ([1]; human): Hit 5 uM

Compound: NCCCn1ccnc1 [N-(3-Aminopropyl) imidazole]
- IC50 ([1]; human): > 10 µM

Compound: O=C(/C=C/C=C/c1ccc2c(c1)OCO2)N1CCCCC1 [Piperine]
- IC50 ([1]; human): ~10 µM
- hit / no hit, inhibition of CYP3A4 ([1]; human): Hit

Compound: CC(=O)/C=C/C1=C(C)CCCC1(C)C [β-Ionone]
- IC50 ([1]; human): > 10 µM

Compound: Diltazem
- hit / no hit, inhibition of CYP3A4 ([1]; P450-GLO Assay kit): no hit (weak/no inhibition (IC50 value >10 μM))
- IC50 [1, 3]: > 10 µM
